Data published in ChEMBL document CHEMBL6092130, “Recent advances in the treatment of gout with NLRP3 inflammasome inhibitors” (Bioorg Med Chem, 2024).

Key:
[1] = Inhibition of NLRP3 inflammasome in mouse J774.A1 cells assessed as inhibition of IL-1 beta secretion; type: cell-based
[2] = Cytotoxicity against human PBMC cells assessed as reduction in cell viability by CellTiter Glo assay; type: functional, cell-based
[3] = Inhibition of NLRP3 inflammasome activation in LPS-induced mouse RAW264.7 cells assessed as downregulation of NLRP3 expression; type: cell-based
[4] = Inhibition of NLRP3 inflammasome activation in LPS-induced mouse RAW264.7 cells assessed as reduction of NLRP3 expression by Western blot analysis; type: cell-based
RAW264.7 = assay: Antiinflammatory activity against mouse RAW264.7 cells assessed as decrease in LPS-induced IL-1beta level at 20 uM incubated for 24 hrs by ELISA relative to control; type: functional; parameters: scale not given: the % may be the effect or the level left
[5] = Antiinflammatory activity against LPS-stimulated human MDM cells assessed as inhibition of LPS-induced IL-1beta level at 20 uM incubated for 24 hrs by ELISA relative to control; type: functional; parameters: scale not given: the % may be the effect or the level left
[6] = Oral bioavailability in human; type: ADME, organism-based; conditions: in vivo

Compound: COc1ccc(Cl)cc1C(=O)NCCc1ccc(S(=O)(=O)NO)cc1
- IC50 [1]: 8450 nM

Compound: C=C1C(=O)[C@]23[C@H](O)[C@H]1CC[C@H]2[C@@]12CO[C@]3(O)[C@@H](O)[C@@H]1C(C)(C)CC[C@@H]2O [ORIDONIN]
- IC50 [2]: 5180 nM

Compound: COc1ccc(CNS(=O)(=O)c2ccc(CCNC(=O)c3cc(Cl)ccc3OC)cc2)cc1
- IC50 [3]: 450 nM

Compound: CNS(=O)(=O)c1ccc(CCNC(=O)c2ccccc2)cc1
- IC50 [3]: 147 nM

Compound: CC(C)(O)c1coc(S(=O)(=O)NC(=O)Nc2c3c(cc4c2CCC4)CCC3)c1
- IC50 [3]: 7.5 nM

Compound: CCCCN(CCCC)S(=O)(=O)c1ccc(CCNC(=O)c2cc(Cl)ccc2OC)cc1
- IC50 [3]: 550 nM

Compound: COc1ccc(Cl)cc1C(=O)NCCc1ccc(S(=O)(=O)NC(=O)NC2CCCCC2)cc1 [GLYBURIDE]
- IC50 [4]: 13000 nM

Compound: CC(C)C[C@H](NC(=O)CNC(=O)c1cc(Cl)ccc1Cl)B(O)O [IXAZOMIB]
- Activity (RAW264.7): 77%

Compound: CS(=O)(=O)CCC#N
- Activity [5]: 60%

Compound: CC(C)C[C@H](NC(=O)[C@H](Cc1ccccc1)NC(=O)c1c(F)cccc1F)B(O)O
- bioavailability [6]: 48.1%
